Values joined by “and” are separate entries in the source; they are usually repeats but may differ in a detail not shown here. Equal values may be shown once.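 Values below derive from 48-hour exposures of cells grown in 96-well plates, with endpoints linearly interpolated between the two concentrations bracketing the appropriate inhibition level. At the GI50, growth is halved. TGI is the concentration that stops growth completely.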
Columns and labels:
Test in all cases: NCI anticancer screen, dose series, 48 h
786-0 renal = tested on: 786-0 renal
HOP-92 NSCLC = tested on: HOP-92 NSCLC
HT29 colon = tested on: HT29 colon
MDA-MB-435 = tested on: MDA-MB-435
MOLT-4 leukemia = tested on: MOLT-4 leukemia
OVCAR-8 ovarian = tested on: OVCAR-8 ovarian
RXF 393 renal = tested on: RXF 393 renal
SK-MEL-28 melanoma = tested on: SK-MEL-28 melanoma
SN12C renal = tested on: SN12C renal
SNB-19 CNS = tested on: SNB-19 CNS

Row | Structure (SMILES) | GI50 (786-0 renal) | TGI (786-0 renal) | GI50 (HOP-92 NSCLC) | TGI (HOP-92 NSCLC) | GI50 (HT29 colon) | TGI (HT29 colon) | GI50 (MDA-MB-435) | TGI (MDA-MB-435) | GI50 (MOLT-4 leukemia) | TGI (MOLT-4 leukemia) | GI50 (OVCAR-8 ovarian) | TGI (OVCAR-8 ovarian) | GI50 (RXF 393 renal) | TGI (RXF 393 renal) | GI50 (SK-MEL-28 melanoma) | TGI (SK-MEL-28 melanoma) | GI50 (SN12C renal) | TGI (SN12C renal) | GI50 (SNB-19 CNS) | TGI (SNB-19 CNS)
1 | CCOC(=O)C(=Cc1ccc(C#N)cc1)C(=O)OCC | 1.84 µM | 3.88 µM | 1.63 µM | 4.26 µM | 1.93 µM | 3.77 µM | 1.98 µM | 4.79 µM | 3.09 µM | 11.5 µM | 3.54 µM | 11.4 µM | 1.87 µM | 3.36 µM | 2.35 µM | 6.56 µM | 1.81 µM | 4.71 µM | 2.66 µM | 7.7 µM
2 | Cc1cc(OCc2nnc3n2S(=O)(=O)c2ccccc2N3C)ccc1Cl |  | 32.7 µM |  | 36.4 µM |  | > 100 µM |  | > 100 µM |  | > 100 µM |  | > 100 µM |  | 60.1 µM |  | > 100 µM |  | > 100 µM |  | 39.1 µM
3 | C(=N\Nc1ncc(-c2cc3cc4c(cc3o2)OCO4)s1)/c1ccco1 | 1.97 µM | 4.94 µM | 1.94 µM | 8.98 µM | 2.99 µM | 7.62 µM | 2.86 µM | 10.2 µM | 0.946 µM | 14.5 µM | 2.8 µM | > 100 µM | 1.8 µM | 5.13 µM | 3.42 µM | 12.3 µM | 2.97 µM | 12.7 µM | 4.73 µM | 23.1 µM
4 | O=C1C2CCN(CC2)C1CN1CCOCC1 (centres undefined) |  | 3.55 µM |  | 3.47 µM |  | 16.9 µM |  | > 100 µM |  | 13.8 µM |  | 13.6 µM |  | 5.33 µM |  | 10.6 µM |  | 8.28 µM |  | 32.6 µM
5 | COc1ccc(Br)cc1NC(=O)Nc1cccc2c1ccn2Cc1ccnc(N)c1 | 8.57 µM and 8.88 µM | 27.5 µM and > 10 µM | 2.18 µM and 1.96 µM | 7.9 µM and 8.55 µM | 2.59 µM and 2.24 µM | 8.09 µM and > 10 µM | 5.42 µM and 5.81 µM | 23.5 µM and > 10 µM | 3.06 µM and 3.14 µM | 18.9 µM and > 10 µM | 5.94 µM and > 10 µM | 23.3 µM and > 10 µM | 4.6 µM and 9.23 µM | 16.1 µM and > 10 µM | 11.5 µM and > 10 µM | 24.8 µM and > 10 µM | 5.48 µM and 7.26 µM | 30.8 µM and > 10 µM | 13.6 µM and > 10 µM | > 85.7 µM
6 | COc1ccc2cc(-c3cnc4nonc4n3)ccc2c1 | 4.17 µM | > 100 µM | 16.1 µM | > 100 µM | 2.97 µM | > 100 µM | 1 µM | 3.35 µM | 1.92 µM | > 100 µM | 2.54 µM | > 100 µM | 1.26 µM | 7.31 µM | > 100 µM | > 100 µM | 5.28 µM | > 100 µM | 4.37 µM | > 100 µM
7 | OC1CC2CCC(C1)N2CCCN1c2ccccc2Sc2ccc(Cl)cc21 (centres undefined) |  | 3.54 µM |  | 9.39 µM |  | 3.63 µM |  | 3.31 µM |  | 5.8 µM |  | 4.86 µM |  | 4.04 µM |  | 3.69 µM |  | 13.7 µM |  | 13.5 µM
8 | NC(=S)N/N=C/c1ccc(OC(=O)COc2cc(Cl)c(Cl)cc2Cl)cn1 | 3.54 µM | > 100 µM | 1.54 µM | 26.6 µM | 17.7 µM | > 100 µM | 6.68 µM | > 100 µM | 4.53 µM | > 100 µM | 2.26 µM | > 100 µM | 3.16 µM | 21.4 µM | 13.1 µM | > 100 µM | 3.58 µM | > 100 µM | 5.87 µM | > 100 µM
9 | CCN1CCN(CCNc2nccc(-c3c(-c4ccc(F)c(O)c4)nc4occn34)n2)S1(=O)=O | 9.44 µM | > 100 µM | 52.1 µM | > 100 µM | 4.2 µM | > 100 µM | 3.03 µM | > 100 µM | 2.56 µM | > 100 µM | 3.63 µM | > 100 µM | 2.51 µM | > 100 µM | 5.68 µM | > 100 µM | 4.41 µM | > 100 µM | > 100 µM | > 100 µM
10 | NCCCCC(NC(=O)C(N)CCCN=C(N)N)C(=O)NC(CCCCN)C(=O)NC(CCCN=C(N)N)C(=O)NC(CCCN=C(N)N)C(=O)NC(CCC(N)=O)C(=O)NC(CCCN=C(N)N)C(=O)NC(CCCN=C(N)N)C(=O)NC(CCCN=C(N)N)C(=O)NCC(=O)NCC(=O)O (centres undefined) | > 50 µM | > 50 µM | > 50 µM | > 50 µM | > 50 µM | > 50 µM | > 50 µM | > 50 µM | > 50 µM | > 50 µM | > 50 µM | > 50 µM | > 50 µM | > 50 µM | > 50 µM | > 50 µM | > 50 µM | > 50 µM | > 50 µM | > 50 µM
11 | CSc1cc([C@@H]2C[C@H]2c2ccc(Cl)cc2)on1 | 15 µM | 55.3 µM | 7.97 µM | 27.3 µM | 18.6 µM | > 100 µM | 16.8 µM | 45.1 µM | 28.6 µM | > 100 µM | 12.3 µM | 46.1 µM | 2.14 µM | 12.6 µM | 24.5 µM | 96.7 µM | 5.17 µM | 20.5 µM | 27.4 µM | > 100 µM
12 | COc1cc(-n2ccnc2-c2ccc3ccccc3c2)cc(OC)c1OC | 0.161 µM | 19 µM | 3.72 µM | 28.9 µM | < 0.0222 µM | > 37.6 µM |  | 0.124 µM | 0.284 µM | > 50.9 µM | 0.398 µM | > 53.1 µM | 0.17 µM | 0.749 µM | 0.688 µM | 38.3 µM | 1.64 µM | > 59 µM | 0.131 µM | > 36.7 µM
13 | COc1cnc2c(c1)C(=O)c1c-2n(CCCN2CCCC2)c(=O)c2cc([N+](=O)[O-])ccc12 | 0.0266 µM | 0.152 µM | 0.554 µM | 15.6 µM | 0.0202 µM | 1.37 µM | 0.0647 µM | 1.13 µM | < 0.01 µM | 0.0451 µM | 0.0929 µM | 5.85 µM | 0.0611 µM | 0.533 µM | 10.6 µM | 27.9 µM | 0.036 µM | 15.3 µM | 0.0355 µM | 4.3 µM
14 | CCSC[C@@H]1C[C@](O)(c2ccc(Cl)cc2)[C@@H](c2ccc(Cl)cc2)O1 | 17 µM | 31.9 µM | 20.9 µM | 36.9 µM | 15.6 µM | 30.8 µM | 19.2 µM | 40.1 µM | 17.7 µM | 43.6 µM | 17.4 µM | 45 µM | 23.2 µM | 38.5 µM | 16.2 µM | 32.8 µM | 17.6 µM | 34.6 µM | 18.8 µM | 50 µM
15 | COc1cc(-c2nn(-c3cccc(NC(=O)Nc4ccc(Cl)c(C(F)(F)F)c4)c3)cc2-c2ccncc2)ccc1Cl | 1.61 µM | 8.02 µM | 0.499 µM | 1.48 µM | 1.19 µM | 4.45 µM | 0.683 µM | 1.69 µM | 1.02 µM | 7.96 µM | 1.05 µM | 5.87 µM | 1.18 µM | 6.29 µM | 1.2 µM | 5.01 µM | 1.14 µM | 9.23 µM | 1.24 µM | 9.24 µM
16 | Cc1c(Cn2c(C)nc3c(C(=O)O)cc(N4CCOCC4)cc32)cccc1C(F)(F)F | 24.7 µM | > 100 µM | 14.1 µM | > 100 µM | 57.3 µM | > 100 µM | 66 µM | > 100 µM | 56.6 µM | > 100 µM | 33.7 µM | > 100 µM | 0.719 µM | > 63.4 µM | > 100 µM | > 100 µM | 41.5 µM | > 100 µM | > 100 µM | > 100 µM
17 | Cc1ccc(OCC2CO2)c(Br)c1 (centres undefined) |  | 62 µM |  | 36.5 µM |  | 29.1 µM |  | 48.2 µM |  | 70.4 µM |  | 20.4 µM |  | 26.5 µM |  | 85.1 µM |  | 45 µM |  | > 100 µM

Source: PubChem BioAssay (NCI)
